Reference: the NIST ThermoML archive (doi:10.1016/j.tca.2016.05.011)
± gives the expanded uncertainty stated by the source.

Assay: Boiling temperature at pressure P
Details: Liquid, DSC

| SMILES | Boiling temperature at pressure P (29.65 kPa) [°C] | Boiling temperature at pressure P (49.44 kPa) [°C] | Boiling temperature at pressure P (69.2 kPa) [°C] | Boiling temperature at pressure P (101.6 kPa) [°C] | Boiling temperature at pressure P (247.5 kPa) [°C] | Boiling temperature at pressure P (9.9 kPa) [°C] | Boiling temperature at pressure P (19.82 kPa) [°C] | Boiling temperature at pressure P (29.75 kPa) [°C] | Boiling temperature at pressure P (49.63 kPa) [°C] | Boiling temperature at pressure P (64.61 kPa) [°C] |
| --- | --- | --- | --- | --- | --- | --- | --- | --- | --- | --- |
| Cc1ccccc1 [toluene] | 72.4 ± 1.8 | 87.5 ± 2.5 | 98.0 ± 2.4 | 111.2 ± 3.2 | 145.5 ± 4.5 |  |  |  |  |  |
| CC(C)(C)c1ccccc1O [2-tert-butyl-1-hydroxybenzene] |  |  |  |  |  | 145.4 ± 1.6 | 165.5 ± 2.6 | 178.6 ± 2.3 | 196.2 ± 3.1 | 206.1 ± 3.3 |
